From article PMC6430500, “3-Fluoro-4-hydroxyprolines: Synthesis, Conformational Analysis, and Stereoselective Recognition by the VHL E3 Ubiquitin Ligase for Targeted Protein Degradation” (Journal of the American Chemical Society, 2018)
Read-outs that look alike come from different tables or passages of the source. Marks after values point to notes of the source that are not given here. Each block holds one compound with its values, some of them ahead of it. *1 amine or outer side, *2 acyl side, *3 side chain or, on linkers, in order; H or OH if unused. Where a SMILES comes first, the peptide text is derived from it. [ ]: non-standard residue; d: D form. X1 = O=C([C@@H]1[C@@H](F)[C@@H](O)CN1[*:1])[*:2]; X2 = O=C([C@@H]1[C@H](F)[C@@H](O)CN1[*:1])[*:2]

What was measured:
[1] = target: T1, VBC (VHL, elongin B, elongin C) (Homo sapiens, UniProt P40337); assay: ITC of peptides and ligands against VBC; type: binding; settings: for Kd / ΔG / ΔH / –TΔS: ITC, 25°C; for Kd: mean ± s.e.m.; for fold difference in binding affinity compared to VH032: relative to VH032 Kd
T1 construct: VHL (54–213), ElonginC (17–112) and; His6 (N, cleaved yes); made in house; host or cells: Escherichia coli BL21(DE3)
T1 sequence (P40337 54-213): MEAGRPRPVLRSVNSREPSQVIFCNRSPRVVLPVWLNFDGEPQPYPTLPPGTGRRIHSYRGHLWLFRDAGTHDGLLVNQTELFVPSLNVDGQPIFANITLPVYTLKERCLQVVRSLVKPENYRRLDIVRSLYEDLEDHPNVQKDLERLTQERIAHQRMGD
T1 sequence (Q15369 17-112 partner limits assumed): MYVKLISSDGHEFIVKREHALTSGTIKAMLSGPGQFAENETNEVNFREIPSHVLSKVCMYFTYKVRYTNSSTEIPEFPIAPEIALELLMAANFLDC
T1 sequence (Q15370 1-104 partner limits assumed): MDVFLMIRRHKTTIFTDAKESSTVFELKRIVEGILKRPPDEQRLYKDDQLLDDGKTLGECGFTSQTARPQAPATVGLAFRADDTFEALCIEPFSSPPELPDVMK

A549 cells = assay: A549 colony-formation assay; type: cell-based; settings: 7 days, crystal violet
Procedure: A549 Colony-Formation Assay
A549 cells were seeded in clear, Nunc™ Edge 2.0 96 -w ell plates (Thermo Scientific) at 1000 cells per well and incubated at 37°C in DMEM. After 24 h cells were treated with test compounds from 10 µM to 100 nM , with a final DM SO of 0.1%. The cells were left to grow until DM SO -treated wells reached ~100% confluence (~8 days), at which point they were washed with PBS, fixed with 100% MeOH (30 min 4°C), stained with 0.1% crystal violet (30 min at r.t.) and left to dry overnight. Once dried plates were imaged on an Epson Perfection V800 scanner, at a resolution of 1200 DPI and in 48 -bit colour.
For dose-response curves, crystal-violet dye was extracted by the addition of 200 µl 1% SDS to each well, and incubation for 3 h at r.t. The absorbance at 595nm of each well was measured on a Pherastar FS (BMG), normalised for each compound and plotted against compound concentration.
(1 picture or pasted object on this page, not shown here)

MV4;11 cells = assay: CellTiter-Glo cell viability assay; type: cell-based; settings: for EC50: MV4-11, 72 h
Procedure: MV4;11 cells (15000 cells per well) were dosed for 72 h with compounds serially diluted (1:3) on a clear-bottom 384-well plate with a final concentration of 0.05% (v/v) DMSO. After treatment, Promega CellTiter-Glo luminescent cell viability assay (G7572) was added to the cells according to the manufacturer instructions. The signal from each well was recorded on a BM G Labtech Pherastar luminescence plate reader with recommended settings.
Normalized data were analyzed and plotted with Graphpad Prism software in the ‘log(inhibitor) vs. response -- Variable slope (four parameters)’ module. EC50 values of each test compound were […]

[2] = Intrinsic clearance in mouse liver microsomes; type: in vitro ADME; settings: 0.5 µM
Procedure: (§1) Test compound (10 µM) was incubated in pre-warmed plasma at 37 ᵒC (that is buffered to pH 7.4 in ratio of 70:30 plasma to buffer). Immediately, at time zero, then at 30, 60, 120, and 180 min, a 50 µL aliquot of the incubation mixture was removed and mixed with 200 µL acetonitrile containing Donepezil as the internal standard (50 ng/ml) to stop the reaction. The samples were centrifuged to sediment the precipitated protein and the plates then sealed prior to UPLC-MS/MS analysis using a Quattro Premier XE (Waters Corporation, USA).
(§2) XLfit (IDBS, UK) was used to calculate the exponential decay and consequently the rate constant (k) from the ratio of peak area of test compound to internal standard at each time point. The half-life was calculated for each test compound from the rate by using the following calculation:
(§3) Test compound (0.5 µM) was incubated with female CD1 mouse liver microsomes (Xenotech LLC TM; 0.5 mg/mL in 50mM potassium phosphate buffer, pH 7.4) and the reaction started with addition of excess NADPH (8 mg/mL 50 mM potassium phosphate buffer, pH 7.4). […]
(§4) from the ratio of peak area of test compound to internal standard at each time point. The rate of intrinsic clearance (CLi) of each test compound was then calculated using the following calculation: […]

[3] = Parallel artificial membrane permeability assay (PAMPA); type: in vitro ADME; settings: pH 7.4, 10 µM
Procedure: Parallel Artificial Membrane Permeability Assay (PAMPA)
PAMPA was performed using a 96-well pre-coated BD Gentest™ PAMPA plate (BD Biosciences, U.K.). Each well was divided into two chambers; donor and acceptor, separated by a lipid-oil-lipid tri-layer constructed in a porous filter. The effective permeability, Pe, of the compound was measured at pH 7.4. Stock solutions (5 mM) of the compound were prepared in DMSO. The compound was then further diluted to 10 µM in phosphate buffered saline at pH 7.4. The final DMSO concentration did not exceed 5% v/v. The compound dissolved in phosphate buffered saline was then added to the donor side of the membrane and phosphate buffered saline without compound was added to the acceptor side. The PAMPA plate was left at room temperature for 5 h. After which time, an aliquot (100 µl) was then removed from both acceptor and donor compartments and mixed with acetonitrile (80 µl) containing an internal standard. The samples were centrifuged (10 min, 5 °C, 3270 g) to sediment precipitated protein and sealed prior to UPLC-MS/MS analysis using a Quattro Premier XE (Waters Corp, USA). Pe was calculated as shown in the below equation: […]
C D(t)= peak area of compound present in donor well at time t = 18000 s Recovery of compound from donor and acceptor wells was calculated and data was only accepted when recovery exceeded 70%.

Plasma stability = type: in vitro ADME; settings: 37 °C, pH 7.4, read-out: plasma stability T1/2
Procedure: as §1, §2, §3, §4

CHI Log D determination = type: physicochemical; settings: reversed-phase HPLC, Phenomenex Luna C18 column, pH 7.4; read-out: CHI LogD7.4
Procedure: Using a fast gradient, reverse-phase HPLC method to determine the chromatographic hydrophobicity index (CHI) was determined as described by Camurri and Zaramella (ref. 26) and Valko et al. (ref. 27).
Briefly, by plotting the retention time of a set of reference compounds against known CHI values. The CHI value of test compounds was then calculated according to their retention time.
Test compounds were prepared as 0.5 mM solutions in 50:50 acetonitrile:water and analysed by reversed-phase HPLC-UV (wavelength 254 nm) using a Phenomenex Luna C18 100Å 150 x 4.6mm 5 micron column with a gradient of aqueous phase (50 mM ammonium acetate, pH 7.4) and mobile

[4] = design: method as in Frost et al. 40; settings: ref Frost et al. 40; cited from earlier work
[5] = design: method as in Frost et al. 40; settings: ref Frost et al. 40; cited from earlier work; remark: listed apart in the source
[6] = design: method as in Frost et al. 40; settings: ref Frost et al. 40; cited from earlier work; remark: listed apart in the source

Kd [1]: 0.012 ± 0.002 µM
Compound: CC[C@H](C)[C@H](NC(=O)[C@H](Cc1ccc(O)cc1)NC(=O)[C@@H]1[C@@H](F)[C@@H](O)CN1C(=O)[C@H](C)NC(=O)[C@H](CC(C)C)NC(=O)[C@H](C)NC(=O)[C@H](CCC(=O)O)NC(=O)[C@@H](N)CC(=O)O)C(=O)N1CCC[C@H]1C(=O)N[C@@H](CCSC)C(=O)N[C@@H](CC(=O)O)C(=O)N[C@@H](CC(=O)O)C(=O)N[C@@H](CC(=O)O)C(=O)N[C@@H](Cc1ccccc1)C(=O)N[C@@H](CCC(N)=O)C(=O)N[C@@H](CC(C)C)C(=O)N[C@@H](CCCNC(=N)N)C(=O)N[C@@H](CO)C(=O)N[C@@H](Cc1ccccc1)C(N)=O [13a] (H-DEALA[X1]YIPMDDDFQLRSF-NH2)

Kd [1]: 0.011 ± 0.001 µM
Compound: CC[C@H](C)[C@H](NC(=O)[C@H](Cc1ccc(O)cc1)NC(=O)[C@@H]1C[C@@H](O)CN1C(=O)[C@H](C)NC(=O)[C@H](CC(C)C)NC(=O)[C@H](C)NC(=O)[C@H](CCC(=O)O)NC(=O)[C@@H](N)CC(=O)O)C(=O)N1CCC[C@H]1C(=O)N[C@@H](CCSC)C(=O)N[C@@H](CC(=O)O)C(=O)N[C@@H](CC(=O)O)C(=O)N[C@@H](CC(=O)O)C(=O)N[C@@H](Cc1ccccc1)C(=O)N[C@@H](CCC(N)=O)C(=O)N[C@@H](CC(C)C)C(=O)N[C@@H](CCCNC(=N)N)C(=O)N[C@@H](CO)C(=O)N[C@@H](Cc1ccccc1)C(N)=O [13c, reference compound]

pEC50, antiproliferative activity (MV4;11 cells; 72 h): 7.3
EC50 (MV4;11 cells; Homo sapiens, read-out: EC50, antiproliferative activity): 0.0547 µM
EC50 (MV4;11 cells; Homo sapiens, read-out: pEC50, antiproliferative activity (converted)): 0.0547 µM
Compound: Cc1ncsc1-c1ccc(CNC(=O)[C@@H]2C[C@@H](O)CN2C(=O)[C@@H](NC(=O)COCCOCCOCCNC(=O)C[C@@H]2N=C(c3ccc(Cl)cc3)c3c(sc(C)c3C)-n3c(C)nnc32)C(C)(C)C)cc1 [MZ1, reference compound]
effect on cell growth, colony formation (in words) (A549 cells): profound concentration-dependent cytotoxicity
Emax (MV4;11 cells; Homo sapiens, 72 h, read-out: Emax, maximal response at highest concentration): 98%

mouse microsomal stability [2]: <0.50 mL/min/g liver
Papp at 5 h, 10 µM [3]: 0.23 ×10⁻⁶ cm/s
half-life at 10 µM (Plasma stability): > 3 h
chromatographic logD (CHI Log D determination): 1.3
ΔG [1]: –9.02 ± 0.01 kcal/mol
ΔH [1]: –7.2 ± 0.5 kcal/mol
–TΔS [1]: –1.8 ± 0.5 kcal/mol
fold difference in binding affinity compared to VH032 [1]: ≤ 2 fold
Compound: CC(=O)N[C@H](C(=O)N1C[C@H](O)[C@H](F)[C@H]1C(=O)NCc1ccc(-c2scnc2C)cc1)C(C)(C)C [14a]

Kd [1]: 0.052 ± 0.003 µM
Compound: CC[C@H](C)[C@H](NC(=O)[C@H](Cc1ccc(O)cc1)NC(=O)[C@@H]1[C@H](F)[C@@H](O)CN1C(=O)[C@H](C)NC(=O)[C@H](CC(C)C)NC(=O)[C@H](C)NC(=O)[C@H](CCC(=O)O)NC(=O)[C@@H](N)CC(=O)O)C(=O)N1CCC[C@H]1C(=O)N[C@@H](CCSC)C(=O)N[C@@H](CC(=O)O)C(=O)N[C@@H](CC(=O)O)C(=O)N[C@@H](CC(=O)O)C(=O)N[C@@H](Cc1ccccc1)C(=O)N[C@@H](CCC(N)=O)C(=O)N[C@@H](CC(C)C)C(=O)N[C@@H](CCCNC(=N)N)C(=O)N[C@@H](CO)C(=O)N[C@@H](Cc1ccccc1)C(N)=O [13b] (H-DEALA[X2]YIPMDDDFQLRSF-NH2)

mouse microsomal stability [2]: 0.68 mL/min/g liver
Papp at 5 h, 10 µM [3]: 0.081 ×10⁻⁶ cm/s
half-life at 10 µM (Plasma stability): > 3 h
chromatographic logD (CHI Log D determination): 1.3
ΔG [1]: –7.55 ± 0.03 kcal/mol
ΔH [1]: –3.9 ± 0.5 kcal/mol
–TΔS [1]: –3.8 ± 0.4 kcal/mol
Kd [1]: 3.08 µM
fold difference in binding affinity compared to VH032 [1]: ~20 fold
Compound: CC(=O)N[C@H](C(=O)N1C[C@H](O)[C@@H](F)[C@H]1C(=O)NCc1ccc(-c2scnc2C)cc1)C(C)(C)C [14b]

Compound: CC(=O)N[C@H](C(=O)N1C[C@H](O)C[C@H]1C(=O)NCc1ccc(-c2scnc2C)cc1)C(C)(C)C [VH032]
CHI LogD7.4 [4]: 0.90 ^a
mouse microsomal stability [5]: 0.70 ^a mL/min/g liver
plasma stability T1/2 [6]: >180 ^a min
